Test results from patent publication US12570988B2, “Aptamers that bind thiamine analogs and derivatives” (MeiraGTx Gene Regulation Limited, priority 2020, dated 2026).

Key:
[1] = tested on: riboswitch 15D10; experiment: Luciferase reporter with 15D10 riboswitch (Luci-15D10) in AML12 cells; format: cell-based, mouse; conditions: Mus musculus, AML12, 24 h, 50 μM; AML12 cells; Table 2; read-out: Fold increase in riboswitch 15D10-regulated luciferase expression, AML
[2] = tested on: riboswitch 15D10; experiment: Luciferase reporter with 15D10 riboswitch (Luci-15D10) in HEK 293 cells; format: cell-based, human; conditions: Homo sapiens, HEK293, 24 h, 50 μM; HEK 293 cells; Table 2; read-out: Fold increase in riboswitch 15D10-regulated luciferase expression, HEK
Method: Transfection: 3.5×10^4 human embryonic kidney (HEK) 293 cells were plated in a 96-well flat bottom plate the day before transfection. Plasmid DNA (500 ng) was added to a tube or a 96-well U-bottom plate. […] Then, 50 μL of this diluted transfection reagent was added to the DNA, mixed, and incubated at RT for 20 min. Finally, 7 μL of this solution was added to a well of cells in the 96-well plate. Four hours after transfection, medium containing transfection solution was replaced by medium containing either TPP, fursultiamine, prosultiamine, bisbentiamine, beclotiamine hydrochloride, or sulbutiamine as aptamer inducers.
Firefly luciferase assay of cultured cells: Twenty-four hours after media change, plates were removed from the incubator, and equilibrated to RT for several minutes on a lab bench, then aspirated. Glo-lysis buffer (Promega, 100 μL, RT) was added, and the plates allowed to remain at RT for at least 5 minutes. Then, the well contents were mixed by 50 μL trituration, and 20 μL of each sample was mixed with 20 μL of bright-glo reagent (Promega) that had been diluted to 10% in glo-lysis buffer. 96 wells were spaced on an opaque white 384-well plate. Following a 5 min incubation at RT, luminescence was measured using a Tecan machine with 500 ms read time. The luciferase activity was expressed as mean arbitrary light units (ALU)±S.D., and fold induction was calculated as the quotient of the luciferase activity obtained from cells with TPP or analog treatment divided by the luciferase activity obtained from cells without TPP or analog treatment.

Compound	fold induction at 50 µM [1]	fold induction at 50 µM [2]
C/C(=C(\CCO)SC(=O)c1ccc2c(c1)C(C)(C)CCC2(C)C)N(C=O)Cc1cnc(C)nc1N [Compound M50, (Z)—S-(2-(N-((4-amino-2-methylpyrimidin-5-yl)methyl)formamido)-5-hydroxypent-2-en-3-yl) 5,5,8,8-tetramethyl-5,6,7,8-tetrahydronaphthalene-2-carbothioate]	142	93.5
C/C(=C(\CCO)SC(=O)c1ccc2ccccc2c1Br)N(C=O)Cc1cnc(C)nc1N [Compound M51, (Z)—S-(2-(N-((4-amino-2-methylpyrimidin-5-yl)methyl)formamido)-5-hydroxypent-2-en-3-yl) 1-bromonaphthalene-2-carbothioate]	189	392
COc1ccc2cc(C(=O)S/C(CCO)=C(/C)N(C=O)Cc3cnc(C)nc3N)ccc2c1 [Compound M52, (Z)—S-(2-(N-((4-amino-2-methylpyrimidin-5-yl)methyl)formamido)-5-hydroxypent-2-en-3-yl) 6-methoxynaphthalene-2-carbothioate]	195	364
C/C(=C(\CCO)SC(=O)C12CC3CC(CC(C3)C1)C2)N(C=O)Cc1cnc(C)nc1N [Compound M53, S—((Z)-2-(N-((4-amino-2-methylpyrimidin-5-yl)methyl)formamido)-5-hydroxypent-2-en-3-yl) (3r,5r,7r)-adamantane-1-carbothioate]	57	2.4
C/C(=C(\CCO)SC(=O)C(C)c1ccccc1)N(C=O)Cc1cnc(C)nc1N (stereo not drawn) [Compound M54, (Z)—S-(2-(N-((4-amino-2-methylpyrimidin-5-yl)methyl)formamido)-5-hydroxypent-2-en-3-yl) 2-phenylpropanethioate]	13.9	3
C/C(=C(\CCO)SC(=O)C(C)(C)Cc1ccccc1)N(C=O)Cc1cnc(C)nc1N [Compound M55, (Z)—S-(2-(N-((4-amino-2-methylpyrimidin-5-yl)methyl)formamido)-5-hydroxypent-2-en-3-yl) 2,2-dimethyl-3-phenylpropanethioate]	9	2.1
C/C(=C(\CCO)SC(=O)C1(C)CCCCC1)N(C=O)Cc1cnc(C)nc1N [Compound M57, (Z)—S-(2-(N-((4-amino-2-methylpyrimidin-5-yl)methyl)formamido)-5-hydroxypent-2-en-3-yl) 1-methylcyclohexane-1-carbothioate]	24.4	1.2
C/C(=C(\CCO)SC(=O)C(C)(c1ccccc1)c1ccccc1)N(C=O)Cc1cnc(C)nc1N [Compound M58, (Z)—S-(2-(N-((4-amino-2-methylpyrimidin-5-yl)methyl)formamido)-5-hydroxypent-2-en-3-yl) 2,2-diphenylpropanethioate]	1.5	1.1
C/C(=C(\CCO)SC(=O)C(c1ccccc1)C(C)C)N(C=O)Cc1cnc(C)nc1N (stereo not drawn) [Compound M59, (Z)—S-(2-(N-((4-amino-2-methylpyrimidin-5-yl)methyl)formamido)-5-hydroxypent-2-en-3-yl) 3-methyl-2-phenylbutanethioate]	1	1.1
C/C(=C(\CCO)SC(=O)C1(C)Cc2ccccc2C1)N(C=O)Cc1cnc(C)nc1N [Compound M62, (Z)—S-(2-(N-((4-amino-2-methylpyrimidin-5-yl)methyl)formamido)-5-hydroxypent-2-en-3-yl) 2-methyl-2,3-dihydro-1H-indene-2-carbothioate]	110	49
C/C(=C(\CCO)SC(=O)C(C)(C)c1ccc2ccccc2c1)N(C=O)Cc1cnc(C)nc1N [Compound M63, (Z)—S-(2-(N-((4-amino-2-methylpyrimidin-5-yl)methyl)formamido)-5-hydroxypent-2-en-3-yl) 2-methyl-2-(naphthalen-2-yl)propanethioate]	19	1.7
C/C(=C(\CCO)SC(=O)C(c1ccccc1)c1ccccc1)N(C=O)Cc1cnc(C)nc1N [Compound M64, (Z)—S-(2-(N-((4-amino-2-methylpyrimidin-5-yl)methyl)formamido)-5-hydroxypent-2-en-3-yl) 2,2-diphenylethanethioate]	3.9	2
C/C(=C(\CCO)SC(=O)C1(c2cccc(Br)c2)CC1)N(C=O)Cc1cnc(C)nc1N [Compound M65, (Z)—S-(2-(N-((4-amino-2-methylpyrimidin-5-yl)methyl)formamido)-5-hydroxypent-2-en-3-yl) 1-(3-bromophenyl)cyclopropane-1-carbothioate]	67.1	3.2
C/C(=C(\CCO)SC(=O)c1c(Cl)cc(-c2ccccc2)cc1Cl)N(C=O)Cc1cnc(C)nc1N [Compound M66, (Z)—S-(2-(N-((4-amino-2-methylpyrimidin-5-yl)methyl)formamido)-5-hydroxypent-2-en-3-yl) 3,5-dichloro-[1,1′-biphenyl]-4-carbothioate]	0.4	1.1
C/C(=C(\CCO)SC(=O)c1c(C)cc(C(C)(C)C)cc1C)N(C=O)Cc1cnc(C)nc1N [Compound M67, (Z)—S-(2-(N-((4-amino-2-methylpyrimidin-5-yl)methyl)formamido)-5-hydroxypent-2-en-3-yl) 4-(tert-butyl)-2,6-dimethylbenzothioate]	0.9	2.1
C/C(=C(\CCO)SC(=O)c1ccc(-c2ccccc2)cc1Cl)N(C=O)Cc1cnc(C)nc1N [Compound M68, (Z)—S-(2-(N-((4-amino-2-methylpyrimidin-5-yl)methyl)formamido)-5-hydroxypent-2-en-3-yl) 3-chloro-[1,1′-biphenyl]-4-carbothioate]	209	303
C/C(=C(\CCO)SC(=O)c1cc(C(C)(C)C)cc(C(C)(C)C)c1)N(C=O)Cc1cnc(C)nc1N [Compound M70, (Z)—S-(2-(N-((4-amino-2-methylpyrimidin-5-yl)methyl)formamido)-5-hydroxypent-2-en-3-yl) 3,5-di-tert-butylbenzothioate]	236	51
C/C(=C(\CCO)SC(=O)c1cccc(-c2ccccc2)c1)N(C=O)Cc1cnc(C)nc1N [Compound M72, (Z)—S-(2-(N-((4-amino-2-methylpyrimidin-5-yl)methyl)formamido)-5-hydroxypent-2-en-3-yl) [1,1′-biphenyl]-3-carbothioate]	295	236
C/C(=C(\CCO)SC(=O)c1ccc(Oc2ccccc2)cc1)N(C=O)Cc1cnc(C)nc1N [Compound M73, (Z)—S-(2-(N-((4-amino-2-methylpyrimidin-5-yl)methyl)formamido)-5-hydroxypent-2-en-3-yl) 4-phenoxybenzothioate]	200	205
C/C(=C(\CCO)SC(=O)c1ccc2oc3ccccc3c2c1)N(C=O)Cc1cnc(C)nc1N [Compound M76, (Z)—S-(2-(N-((4-amino-2-methylpyrimidin-5-yl)methyl)formamido)-5-hydroxypent-2-en-3-yl) dibenzo[b,d]furan-2-carbothioate]	134	60.7
C/C(=C(\CCO)SC(=O)c1ccc2sccc2c1)N(C=O)Cc1cnc(C)nc1N [Compound M79, (Z)—S-(2-(N-((4-amino-2-methylpyrimidin-5-yl)methyl)formamido)-5-hydroxypent-2-en-3-yl) benzo[b]thiophene-5-carbothioate]	358	353
COCCOc1ccc(C(=O)S/C(CCO)=C(/C)N(C=O)Cc2cnc(C)nc2N)cc1 [Compound M82, (Z)—S-(2-(N-((4-amino-2-methylpyrimidin-5-yl)methyl)formamido)-5-hydroxypent-2-en-3-yl) 4-(2-methoxyethoxy)benzothioate]	73.9	89.2
C/C(=C(\CCO)SC(=O)/C=C/c1ccc2ccccc2c1)N(C=O)Cc1cnc(C)nc1N [Compound M88, S—((Z)-2-(N-((4-amino-2-methylpyrimidin-5-yl)methyl)formamido)-5-hydroxypent-2-en-3-yl) (E)-3-(naphthalen-2-yl)prop-2-enethioate]	355	216
C/C(=C(\CCO)SCOC(=O)c1cccc2ccccc12)N(C=O)Cc1cnc(C)nc1N [Compound M97, (Z)-((2-(N-((4-amino-2-methylpyrimidin-5-yl)methyl)formamido)-5-hydroxypent-2-en-3-yl)thio)methyl 1-naphthoate]	126	299
C/C(=C(\CCO)SCOC(=O)c1cc2ccccc2c2ccccc12)N(C=O)Cc1cnc(C)nc1N [Compound M98, (Z)-((2-(N-((4-amino-2-methylpyrimidin-5-yl)methyl)formamido)-5-hydroxypent-2-en-3-yl)thio)methyl phenanthrene-9-carboxylate]	57.7	13.6
